Experimental findings from patent US10414769B2, “5,8-dimethyl-9-phenyl-5,8-dihydro-6H-pyrazolo[3,4-h]quinazolin-2-yl)-(1H-pyrazol-3-yl)-amines as IGF-1R/IR inhibitors” (Boehringer Ingelheim International GmbH, priority 2015, dated 2019) are described below.

The target in one experiment is T1, EPHB2 (Homo sapiens, UniProt P29323).
T1 construct: purchased Life Technologies PV 3625
T1 sequence (P29323 19-1055): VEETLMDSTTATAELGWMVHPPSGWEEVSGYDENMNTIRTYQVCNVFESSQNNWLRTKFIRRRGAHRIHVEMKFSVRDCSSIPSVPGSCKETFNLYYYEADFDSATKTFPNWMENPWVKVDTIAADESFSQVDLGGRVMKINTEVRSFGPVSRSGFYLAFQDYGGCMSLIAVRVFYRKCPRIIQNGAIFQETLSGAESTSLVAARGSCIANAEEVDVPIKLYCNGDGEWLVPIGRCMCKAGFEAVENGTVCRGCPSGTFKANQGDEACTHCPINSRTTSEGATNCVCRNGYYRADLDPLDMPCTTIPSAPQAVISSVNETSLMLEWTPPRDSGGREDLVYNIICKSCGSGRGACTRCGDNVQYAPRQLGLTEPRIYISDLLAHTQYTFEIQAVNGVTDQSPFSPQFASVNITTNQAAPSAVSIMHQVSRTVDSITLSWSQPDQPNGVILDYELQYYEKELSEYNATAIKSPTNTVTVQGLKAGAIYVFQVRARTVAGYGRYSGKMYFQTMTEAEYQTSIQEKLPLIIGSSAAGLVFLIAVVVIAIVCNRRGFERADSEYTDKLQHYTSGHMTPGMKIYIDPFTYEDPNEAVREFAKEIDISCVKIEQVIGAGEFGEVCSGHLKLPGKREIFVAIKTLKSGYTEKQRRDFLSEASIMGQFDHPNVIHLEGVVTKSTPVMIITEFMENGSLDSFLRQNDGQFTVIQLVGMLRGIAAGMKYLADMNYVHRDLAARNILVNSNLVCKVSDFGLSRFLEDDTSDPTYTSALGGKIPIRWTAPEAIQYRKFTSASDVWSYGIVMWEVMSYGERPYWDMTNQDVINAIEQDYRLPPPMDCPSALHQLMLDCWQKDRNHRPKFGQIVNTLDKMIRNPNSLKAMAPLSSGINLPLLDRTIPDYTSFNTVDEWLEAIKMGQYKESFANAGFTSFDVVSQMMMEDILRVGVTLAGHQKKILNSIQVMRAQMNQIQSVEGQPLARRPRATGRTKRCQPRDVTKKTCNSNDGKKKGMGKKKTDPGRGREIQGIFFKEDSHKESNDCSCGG
The experiment in a line: Z'-LYTE kinase selectivity assay EPHB2. The experiment is classed as biochemical. An excerpt: (§1) In order to compare the kinase selectivity of compounds (I) according to the invention with known prior art compounds the commercially provided SelectScreen® Kinase Profiling Service (Z′-LYTE®) was used (Life Technologies GmbH, Darmstadt, Germany) to investigate the ability of the compounds to inhibit a number of different, representatively selected human kinases. Further details regarding this service are available on the Life Technologies website at
(§2) The Z′-LYTE® biochemical assay employs a fluorescence-based, coupled-enzyme format and is based on the differential sensitivity of phosphorylated and non-phosphorylated peptides to proteolytic cleavage. The peptide substrate is labeled with two fluorophores—one at each end—that make up a FRET pair.
(§3) In the primary reaction, the kinase transfers the gamma-phosphate of ATP to a single tyrosine, serine or threonine residue in a synthetic FRET-peptide. In the secondary reaction, a site-specific protease recognizes and cleaves non-phosphorylated FRET-peptides. Phosphorylation of FRET-peptides suppresses cleavage by the Development Reagent. Cleavage disrupts FRET between the donor (i.e., coumarin) and acceptor (i.e., fluorescein) fluorophores on the FRET-peptide, whereas uncleaved, phosphorylated FRET-peptides maintain FRET. A ratiometric method, which calculates the ratio (the Emission Ratio) of donor emission to acceptor emission after excitation of the donor fluorophore at 400 nm, is used to quantitate reaction progress, as shown in the equation below.
(§4) The Test Compounds are screened at 1 μM.
The 2×EPHB2 (# PV 3625)/Tyr 02 (Z′-LYTE® Kinase Assay Kit—Tyrosine 2 Peptide, # PV 3191) mixture is prepared in 50 mM HEPES pH 7.5, 0.01% BRIJ-35, 10 mM MgCl2, 1 mM EGTA. The final 10 μL Kinase Reaction consists of 0.55-36 ng EPHB2 and 2 μM Tyr 02 in 50 mM HEPES pH 7.5, 0.01% BRIJ-35, 10 mM MgCl2, 1 mM EGTA. After the 1 hour Kinase Reaction incubation, 5 μL of a 1:128 dilution of Development Reagent A is added.

A further experiment addresses T2, STK3 (MST2) (Homo sapiens, UniProt Q13188).
T2 construct: purchased Life Technologies PV 4805
T2 sequence (Q13188 1-491): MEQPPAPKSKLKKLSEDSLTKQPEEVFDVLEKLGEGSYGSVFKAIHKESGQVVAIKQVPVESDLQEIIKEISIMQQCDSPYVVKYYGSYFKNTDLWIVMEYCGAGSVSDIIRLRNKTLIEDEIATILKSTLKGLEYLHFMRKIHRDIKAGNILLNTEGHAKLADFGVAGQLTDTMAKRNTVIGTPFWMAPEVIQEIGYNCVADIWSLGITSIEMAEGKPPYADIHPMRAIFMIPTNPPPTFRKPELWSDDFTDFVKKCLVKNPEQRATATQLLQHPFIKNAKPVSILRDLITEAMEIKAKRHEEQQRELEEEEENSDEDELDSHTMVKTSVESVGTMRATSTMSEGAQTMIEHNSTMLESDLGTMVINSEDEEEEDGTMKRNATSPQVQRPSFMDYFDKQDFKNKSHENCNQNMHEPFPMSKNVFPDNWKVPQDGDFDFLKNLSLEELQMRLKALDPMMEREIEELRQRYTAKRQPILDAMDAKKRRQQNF
Kind of experiment: Z'-LYTE kinase selectivity assay STK3. It is filed as biochemical.
Excerpt: as §1, §2, §3, §4
The 2×STK3 (MST2) (# PV 4805)/Ser/Thr 07 (Z′-LYTE® Kinase Assay Kit—Ser/Thr 7 Peptide, # PV 3180) mixture is prepared in 50 mM HEPES pH 6.5, 0.01% BRIJ-35, 10 mM MgCl2, 1 mM EGTA, 0.02% NaN3. The final 10 μL Kinase Reaction consists of 6.25-38.7 ng STK3 (MST2) and 2 μM Ser/Thr 07 in 50 mM HEPES pH 7.0, 0.01% BRIJ-35, 10 mM MgCl2, 1 mM EGTA, 0.01% NaN3. After the 1 hour Kinase Reaction incubation, 5 μL of a 1:65000 dilution of Development Reagent A is added.

For `C[C@@H]1Cc2nn(C)c(-c3ccccc3)c2-c2nc(Nc3ccn(CCN4CCOCC4)n3)ncc21` [Compound I-2], the inhibition (as a rule, the change of the read-out against control, counted positive when it falls) at 1 µM at EPHB2 came to 68%; against STK3 (MST2), 5%.
Take `CC(O)CN1CCN(CCn2ccc(Nc3ncc4c(n3)-c3c(nn(C)c3-c3ccccc3)C[C@H]4C)n2)CC1` (some centres unmarked) [Compound I-7]: the results for the inhibition at 1 µM against EPHB2 and at STK3 (MST2) were 82% and 15%, respectively.
For `COCCN1CCN(CCn2ccc(Nc3ncc4c(n3)-c3c(nn(C)c3-c3ccccc3)C[C@H]4C)n2)CC1` [Compound I-11], the values for the inhibition at 1 µM against EPHB2 and against STK3 (MST2) were 56% and -2%, respectively.
`C[C@@H]1Cc2nn(C)c(-c3ccccc3)c2-c2nc(Nc3ccn(CCN4CCN(CC5CCCO5)CC4)n3)ncc21` (some centres unmarked) [Compound I-9]: the values for the inhibition at 1 µM on EPHB2 and against STK3 (MST2) were 73% and -15%, respectively.
On to `C[C@@H]1Cc2nn(C)c(-c3ccccc3)c2-c2nc(Nc3ccn(CCN4CCN(CC(=O)OC5CCOCC5)CC4)n3)ncc21` [Compound I-8], for which the inhibition at 1 µM is 62% at EPHB2 and -1% at STK3 (MST2).
Turning to `C[C@@H]1Cc2nn(C)c(-c3ccccc3)c2-c2nc(Nc3ccn(CCN4CCN(C)CC4)n3)ncc21` [Compound I-1], the figures for the inhibition at 1 µM at EPHB2 and on STK3 (MST2) were 64% and 1%, respectively.
As to `C[C@@H]1Cc2nn(C)c(-c3ccccc3)c2-c2nc(Nc3ccn(CCN4CCN(CC(C)(C)O)CC4)n3)ncc21` [Compound I-3], the inhibition at 1 µM was 77% at EPHB2 and -1% against STK3 (MST2).
